Source: patent publication US20180258100A1, “RAPAMYCIN ANALOGS SHOWING IMPROVED mTORC1 SPECIFICITY” (priority 2015, published 2018)
Values joined by “and” are separate entries in the source; they are usually repeats but may differ in a detail not shown here. Identical values can stand only once.

What was measured:
[1] = Plasma lipid levels after chronic i.p. dosing; format: in vivo, female C57BL/6J mice; conditions: rapamycin 8 mg/kg, compound 390 12 mg/kg i.p. every other day; versus vehicle
Procedure: (§1) 10-week old female C57BL/6J mice were given intraperitoneal injections of 8 mg/kg rapamycin (LC laboratories), 12 mg/kg compound 390 or vehicle every other day for three weeks (N=5 mice/group), such as to mimic chronic exposure conditions. 24 hours after the last injection, tissues were dissected from the mice and immediately frozen in liquid nitrogen. The tissues were homogenized using the Omni TH homogenizer (Omni International) on ice in RIPA buffer and then centrifuged at 13,000 rpm for 15 minutes at 4° C. The supernatants were collected and protein concentration was determined using the DC protein assay (Biorad).
Plasma lipid levels were determined at the end of the three-week exposure. Free fatty acids in the serum were measured by the HR Series NEFA-HR(2) (Wako Diagnostics, Richmond, Va.). Triglycerides and cholesterol in serum were measured by Triglycerides Liquicolor Test and Cholesterol Liquicolor Test (Stanbio laboratory, Boerne, Tex.), respectively.

mTORC1 [2] = target: T1, mTORC1 (Homo sapiens, UniProt P42345+P62942); assay: Western blot of PC3 cells treated with 100 nM compound, mTORC1 readout (pS6k/S6k); format: cell-based
T1 construct: endogenous in cells; host or cells: PC3 cells
Procedure: Protein concentrations were determined using the DC protein assay (Biorad). Equal amounts of protein were resolved by SDS-PAGE and transferred to nitrocellulose membrane using the Nu-Page system. […] The following day, blots were washed 3 times in TBST, incubated for 2 h with secondary antibodies, and finally washed an additional 3 times in TBST.

mTORC2 [3] = target: T2, mTORC2 (Homo sapiens, UniProt P42345+P62942); assay: AlphaLISA SureFire Akt 1/2/3 in PC3 cells, phosphorylation of Akt at Ser473 (mTORC2 inhibition); format: cell-based
T2 construct: endogenous in cells; host or cells: PC3 cells
Procedure: mTORC1 inhibition was determined using the AlphaLISA® SureFire® kit (Perkin Elmer) which measures phosphorylation of S6 kinase at positions Ser^240 and Ser^244. mTORC2 inhibition was determined by the AlphaLISA® SureFire® kit for Akt 1/2/3, which determines phospholyltation of Akt protein at position Ser^473. Cells from plates were lysed and incubated for 10 min at room temperature while shaking. Cell lysates were incubated with acceptor mix for 2 hours at room temperature; the donor mix was then added and the resulting solution was incubated for 2 hours at room temperature. AlphaLISA® signal was determined on a Fusion-Alpha FP HT (Perkin Elmer). Percent inhibition was calculated by comparison to the highest inhibition value obtained in the response-concentration curve. IC50s were calculated using Prism software. […]

[4] = Glucose challenge response; format: in vivo, female C57BL/6J mice; conditions: 2 mg/kg glucose after 1 week; rapamycin 8 mg/kg, compound 390 12 mg/kg i.p. every other day
Procedure: as §1
Steady state glucose levels were determined after one week from study initiation using a Bayer Contour blood glucose meter and test strips from small blood samples, which were withdrawn from a tail vein nick. […]

[5] = Glucose tolerance test after 2 weeks of chronic dosing; format: in vivo, male C57BL/6J mice; conditions: rapamycin 8 mg/kg, compound 390 12 mg/kg every other day, male mice
Procedure: (§2) Fortyfive C57BL/6J male mice, housed three per cage, were weighed and their body composition was measured with an EchoMRI 3-in-1 system. […] Mice received every-other-day injections of either vehicle, rapamycin (8 mg/kg), or compound 390 (12 mg/kg). A glucose tolerance test was performed after 2 weeks (morning after the 8th injection). A pyruvate tolerance test was performed after 3 weeks. Glucose stimulated insulin secretion assay was performed after 4 weeks and additional blood was collected for whole blood analysis. Body composition was measured on day −2 and day 31.
Mice were fasted overnight for 16 hours and then injected with either glucose (1 g/kg) or pyruvate (2 g/kg) intraperitoneally. For glucose and pyruvate tolerance tests, small blood samples were taken from a tail vein nick at time intervals and read using a Bayer Contour blood glucose meter and test strips. For glucose-stimulated insulin secretion, blood glucose levels were read using a glucometer and then 50 μL of blood was collected into a heparinized tube immediately prior to and 15 minutes following glucose administration. Insulin levels were determined using a Mouse Insulin ELISA kit (Crystal Chem).

[6] = Steady state glucose levels after one week of i.p. dosing; format: in vivo, female C57BL/6J mice; conditions: 12 mg/kg i.p. every other day, versus vehicle
Procedure: as §1
Steady state glucose levels were determined after one week from study initiation using a Bayer Contour blood glucose meter and test strips from small blood samples, which were withdrawn from a tail vein nick. At the end of the second week, the animals were challenged by administration of 2 mg/kg glucose; glucose levels were determined for two hours following the challenge at 30 min intervals.

mTORC2 complex = mTORC2 complex (Mus musculus, UniProt P26883+Q9JLN9); assay: mTORC2 assembly: immunoprecipitation of Rictor from liver and immunoblotting for mTOR; format: in vivo, male C57BL/6J mice; conditions: liver, four weeks; rapamycin 8 mg/kg, compound 390 12 mg/kg i.p. every other day
Procedure: as §2

mTORC1 [7] = target: T1, mTORC1; assay: AlphaLISA SureFire in PC3 cells, phosphorylation of S6 at Ser240/Ser244 (mTORC1 inhibition, selectivity ratios); format: cell-based
Procedure: PC3 cells were maintained in F12K media (ATCC/GIBCO, Cat# ATCC 30-2004) supplemented with additional 10% FBS (Gemini, cat#100-106), 1% Penicillin/Streptomycin (Life Technologies, cat #15140-122), and 2 mM L-Glutamine (Life Technologies, cat#25030) and cultured at 37° C. For AlphaLISA experiments, cells were seeded in 96-well plates for 24 hours and treated at various concentrations of compound (from approx. 8 fM to 10 μM) for 24 hours. Cells were harvested by lysis in the buffer supplied with the AlphaLISA kit. […] Cells from plates were lysed and incubated for 10 min at room temperature while shaking. Cell lysates were incubated with acceptor mix for 2 hours at room temperature; the donor mix was then added and the resulting solution was incubated for 2 hours at room temperature. AlphaLISA® signal was determined on a Fusion-Alpha FP HT (Perkin Elmer). Percent inhibition was calculated by comparison to the highest inhibition value obtained in the response-concentration curve. IC50s were calculated using Prism software.

mTORC2 [8] = target: mTORC2 (Mus musculus, UniProt P26883+Q9JLN9); assay: Western blot of mouse tissues after 3 weeks i.p. dosing, mTORC2 (P-AKT/Total AKT); format: in vivo, female C57BL/6J mice; conditions: soleus muscle, 12 mg/kg i.p. every other day for 3 weeks
Procedure: as §1
The mTORC1/2 inhibition was determined by Western blots. Equal amounts of protein were resolved by SDS-PAGE and transferred to nitrocellulose membrane using the Invitrogen Nu-Page system. The membranes were blocked for 1 h in 5% milk and incubated overnight in the appropriate antibodies. The following day, blots were washed 3 times in TBST, incubated for 2 h with secondary antibodies (donkey anti rabbit hrp conjugated), and finally washed an additional 3 times in TBST. ECL Prime (Amersham) was used to detect the proteins of interest and ImageJ software was used to quantify the band intensity of the Western blots.

[9] = heart, visceral fat, pancreas, kidney

Chain of mTORC2 (Mus musculus, UniProt P26883+Q9JLN9) (P26883 2-108 limits assumed, other chains not shown): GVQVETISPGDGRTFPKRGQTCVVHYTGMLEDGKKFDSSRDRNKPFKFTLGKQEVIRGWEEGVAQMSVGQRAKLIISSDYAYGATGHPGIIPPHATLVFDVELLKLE
Chain of mTORC2 complex (P26883 2-108 limits assumed, other chains not shown): as above
T2 sequence (P62942 2-108 limits assumed, other chains not shown): as the sequence (P26883 2-108 limits assumed, other chains not shown) above, with T49M, I75T, S78P counted along it

## CO[C@H]1CC2CC[C@@H](C)[C@@](O)(O2)C(=O)C(=O)N2CCCC[C@H]2C(=O)O[C@H]([C@@H](C)CC2CCC(O)CC2)CC(=O)[C@@H](C)/C=C(\C)[C@H](O)[C@H](O)C(=O)[C@@H](C)C[C@H](C)/C=C/C=C/C=C/1C (some centres unmarked) [compound 390, 27-O-Desmethyl-39-Desmethoxy Rapamycin]
[1]
  plasma cholesterol: did not produce any changes
  plasma free fatty acids: did not produce any changes
  plasma triglycerides: did not produce any changes
mTORC1 [2]
  mTORC1 inhibition (pS6k/S6k): full mTORC1 inhibition
mTORC2 [3]
  lower inhibition of mTORC2 compared to rapamycin: ~150 fold
[4]
  glucose response after glucose challenge (glucose intolerance): indistinguishable from the vehicle-receiving control animals
[5]; after 2 weeks
  glucose tolerance test: identical to the vehicle-receiving animals
[5]; chronic dosing
  fasting hyperglycemia: does not cause
[6]
  change of steady state glucose plasma levels: does not produce any substantial or statistically significant increase
mTORC2 complex
  integrity of hepatic mTORC2 complex assembly: no effect upon hepatic mTORC2 assembly
mTORC1 [7]; AlphaLISA IC50 ratios
  improvement of mTORC1 over mTORC2 selectivity compared to rapamycin (average): 51 fold
  improvement of mTORC1 over mTORC2 selectivity compared to rapamycin (range): 52-63 fold
mTORC1 [7]; average of four replicates, 24 h
  Average IC50^mTORC2/IC50^mTORC1: 429.90
mTORC1 [7]; single replicates #1-#4 (N = 3 each), mTORC2 IC50 of the measurement divided by average mTORC1 IC50, 24 h, listed as nID390
  IC50^mTORC2/IC50^mTORC1: 477.07 and 533.79 and 445.85 and 262.89
mTORC2 [8]; gastrocnemius muscle, lung, liver
  mTORC2 inhibition in tissues: very weak
mTORC2 [8]; [9]
  change of mTORC2 activity in tissues: small upregulation of mTORC2 activity
  mTORC2 inhibition in tissues: no inhibition of mTORC2
